One may read the IC50 as the concentration needed to halve the response being measured. Low values mean inhibition by little substance, high ones a need for much substance.

Some results are limits rather than exact numbers.

What all share (format): cell-based
Assay [1] has as its target T1, ER protein (Homo sapiens, UniProt P03372).
T1 sequence (P03372 1-595): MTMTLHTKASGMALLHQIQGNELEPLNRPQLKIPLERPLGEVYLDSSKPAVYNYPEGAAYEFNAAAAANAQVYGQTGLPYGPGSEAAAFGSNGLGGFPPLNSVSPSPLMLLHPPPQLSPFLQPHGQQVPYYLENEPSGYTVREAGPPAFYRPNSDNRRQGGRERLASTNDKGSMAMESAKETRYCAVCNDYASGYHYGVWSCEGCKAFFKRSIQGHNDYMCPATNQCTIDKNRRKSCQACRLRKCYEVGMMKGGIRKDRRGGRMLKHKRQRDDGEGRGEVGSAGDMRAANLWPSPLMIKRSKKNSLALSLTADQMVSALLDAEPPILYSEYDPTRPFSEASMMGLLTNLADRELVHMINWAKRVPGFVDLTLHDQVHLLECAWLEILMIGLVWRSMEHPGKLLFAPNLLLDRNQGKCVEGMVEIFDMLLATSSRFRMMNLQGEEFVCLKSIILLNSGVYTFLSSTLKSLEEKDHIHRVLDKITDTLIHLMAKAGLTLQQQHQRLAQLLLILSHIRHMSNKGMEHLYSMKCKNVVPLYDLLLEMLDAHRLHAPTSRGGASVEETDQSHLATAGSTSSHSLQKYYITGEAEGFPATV
Briefly: Western blotting analysis of ER protein degradation in MCF-7 cell line. The settings on record: MCF-7 cells, Western blot gray values vs DMSO control. Also noted: western blotting detection of the level of intracellular ER protein; endogenous in cells. The method, then:
MCF-7 were cultured in ncubator with 5% CO2 at 37° C. Complete medium was EMEM supplemented with 10% FBS, 100 U/mL Penicillin and Streptomycin, and 0.77 μg/mL recombinant human insulin. […]
DC50 value (the drug concentration required for degrading proteins by 50%, abbreviated as DC50) reads method: comparing the gray values of the Western blotting bands for the drug treatment with the gray values of the Western blotting band for the DMSO control, and reading the drug concentration range corresponding to the gray value of the Western blotting bands for the drug treatment which is equal to half of the gray value of the Western blotting band for the DMSO control.
DC50 value could also be calculated as follows: using software ImageJ to quantify the gray values of the Western blotting bands for the drug treatment, fitting the relationship curve between drug concentrations and gray values, and from the fitted curve, calculating the drug concentration corresponding to half of the gray value of the Western blotting band for the DMSO control.

In a further assay the test system is MCF-7 cell line. Briefly: Assay for determination of inhibition of MCF-7 cell proliferation (CCK-8). The settings on record: Homo sapiens, MCF7, 96 h; MCF-7 cells, 4 days, CCK-8, FIG. 3. How it is done: MCF-7 were cultured in ncubator with 5% CO2 at 37° C. Complete medium was EMEM supplemented with 10% FBS, 100 U/mL Penicillin and Streptomycin, and 0.77 μg/mL recombinant human insulin.
10 μL CCK-8 reagent was added to the test well without adding the drugs, and after 4 h the O.D.value of the test well was recorded as the initial cell level. • After 4 days, 10 μL CCK-8 reagent was added, and the O.D.values was measured, and inhibition level was calculated.

In assay [2] the target is T1, ER protein. As to the kind of experiment: Western blotting analysis of ER protein degradation in T47D cell line. Set-up: western blotting detection of the level of intracellular ER protein; endogenous in cells; host or cells: T47D. The settings on record: degradation of ER protein, T47D cells, drug treatment for 16 hours, Western blot gray values vs DMSO control; read-out: DC50 (nM)/T47Dcell line. In short, it runs like this: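 T47D cells seeded at 1.5×10^5 cells/mL, adhered 24 h, then treated with compound; ER protein level read by Western blot band gray value versus DMSO control. DC50 taken as concentration giving half the control gray value, read from bands or from a fitted concentration–gray value curve.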
On the technique in general: Immunoblotting shows a protein as a band on a membrane.

As to `Cc1ncsc1-c1ccc(CNC(=O)[C@@H]2C[C@@H](O)CN2C(=O)[C@@H](NC(=O)CCCCCCCC(=O)NCCOc2ccc(C(=C(CCCl)c3ccccc3)c3ccc(O)cc3)cc2)C(C)(C)C)cc1` [SIAIS208035, N1-(2-(4-(4-chloro-1-(4-hydroxyphenyl)-2-phenylbut-1-en-1-yl)phenoxy)ethyl)-N9-((S)-1-((2S,4R)-4-hydroxy-2-((4-(4-methylthiazol-5-yl)benzyl)carbamoyl)pyrrolidin-1-yl)-3,3-dimethyl-1-oxobutan-2-yl)nonanediamide], the DC50 on ER protein [1] and at ER protein [2] was under 10 nM in each case. In addition, in the assay on MCF-7 cell line, the midpoint of inhibition, the IC50, lay at 0.75 nM.
For `Cc1ncsc1-c1ccc(CNC(=O)[C@@H]2C[C@@H](O)CN2C(=O)[C@@H](NC(=O)COCCOCC(=O)NCCOc2ccc(C(=C(CCCl)c3ccccc3)c3ccc(O)cc3)cc2)C(C)(C)C)cc1` [SIAIS208041, (2S,4R)-1-((S)-2-(tert-butyl)-14-(4-(4-chloro-1-(4-hydroxyphenyl)-2-phenylbut-1-en-1-yl)phenoxy)-4,11-dioxo-6,9-dioxa-3,12-diazatetradecanoyl)-4-hydroxy-N-(4-(4-methylthiazol-5-yl)benzyl)pyrrolidine-2-carboxamide], the DC50 on ER protein [1] was 10 nM; at ER protein [2], under 10 nM.
As to `CCC(=C(c1ccc(O)cc1)c1ccc(OCCNC(=O)CCCCCCCCC(=O)N[C@H](C(=O)N2C[C@H](O)C[C@H]2C(=O)NCc2ccc(-c3scnc3C)cc2)C(C)(C)C)cc1)c1ccc(O)cc1` [SIAIS208168, N1-(2-(4-(1,2-bis(4-hydroxyphenyl)but-1-en-1-yl)phenoxy)ethyl)-N10-((S)-1-((2S,4R)-4-hydroxy-2-((4-(4-methylthiazol-5-yl)benzyl)carbamoyl)pyrrolidin-1-yl)-3,3-dimethyl-1-oxobutan-2-yl)decanediamide], the IC50 in the assay on MCF-7 cell line turned out to be 0.75 nM. In addition, the DC50 on ER protein [2] was under 1 nM.
Compound `CCC(=C(c1ccc(O)cc1)c1ccc(OCCNC(=O)CCOCCOCCC(=O)N[C@H](C(=O)N2C[C@H](O)C[C@H]2C(=O)NCc2ccc(-c3scnc3C)cc2)C(C)(C)C)cc1)c1ccc(O)cc1` [SIAIS208173, (2S,4R)-1-((S)-16-(4-(1,2-bis(4-hydroxyphenyl)but-1-en-1-yl)phenoxy)-2-(tert-butyl)-4,13-dioxo-7,10-dioxa-3,14-diazahexadecanoyl)-4-hydroxy-N-(4-(4-methylthiazol-5-yl)benzyl)pyrrolidine-2-carboxamide] showed an IC50 in the assay on MCF-7 cell line of 3.6 nM. On ER protein [2], the DC50 is under 10 nM.
The corresponding values for `Cc1ncsc1-c1ccc(CNC(=O)[C@@H]2C[C@@H](O)CN2C(=O)[C@@H](NC(=O)CCCCCCC(=O)N2CCN(CCOc3ccc(C(=C(CCCl)c4ccccc4)c4ccc(O)cc4)cc3)CC2)C(C)(C)C)cc1` [SIAIS251045, (2S,4R)-1-((S)-2-(8-(4-(2-(4-(4-chloro-1-(4-hydroxyphenyl)-2-phenylbut-1-en-1-yl)phenoxy)ethyl)piperazin-1-yl)-8-oxooctanamido)-3,3-dimethylbutanoyl)-4-hydroxy-N-(4-(4-methylthiazol-5-yl)benzyl)pyrrolidine-2-carboxamide] are 4.2 nM and under 10 nM.
In the case of `CN(C)CCOc1ccc(/C(=C(/CCCl)c2ccccc2)c2ccccc2)cc1` [Toremifene, reference compound], in the assay with MCF-7 cell line, the IC50 stood at 869 nM.

(Values after US20220016102A1, “ER PROTEIN REGULATORS AND USE THEREOF” (ShanghaiTech University, priority 2018, published 2022).)
